For 78 compounds, IC50, Activity and Ki results are on record in ChEMBL document CHEMBL1159055, “Oxime carbamate--discovery of a series of novel FAAH inhibitors” (Bioorg Med Chem Lett, 2010).

Structures are written as SMILES. Active and inactive are the calls of the source. No cut-off for these calls is given here.

Experiment [1] has as its target T1, Fatty-acid amide hydrolase 1 (Homo sapiens, UniProt O00519).
T1 sequence (O00519 whole entry): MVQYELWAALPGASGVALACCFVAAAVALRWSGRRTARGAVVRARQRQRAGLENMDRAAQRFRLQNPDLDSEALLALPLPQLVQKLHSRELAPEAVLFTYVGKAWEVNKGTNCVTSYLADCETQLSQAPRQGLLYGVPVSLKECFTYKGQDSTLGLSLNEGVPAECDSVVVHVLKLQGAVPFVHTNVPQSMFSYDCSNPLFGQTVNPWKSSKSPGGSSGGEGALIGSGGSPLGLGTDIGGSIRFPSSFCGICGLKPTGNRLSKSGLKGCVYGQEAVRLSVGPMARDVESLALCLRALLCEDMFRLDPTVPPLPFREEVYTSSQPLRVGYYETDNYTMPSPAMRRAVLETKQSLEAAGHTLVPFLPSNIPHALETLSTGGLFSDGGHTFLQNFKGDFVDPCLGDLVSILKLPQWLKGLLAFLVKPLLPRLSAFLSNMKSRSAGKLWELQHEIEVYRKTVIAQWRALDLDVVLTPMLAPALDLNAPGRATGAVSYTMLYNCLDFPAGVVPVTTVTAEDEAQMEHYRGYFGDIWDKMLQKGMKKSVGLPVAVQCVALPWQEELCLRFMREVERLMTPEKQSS
Nature of the experiment: Inhibition of human FAAH expressed in human H4 cells. The experiment is classed as cell-based.

The test system of experiment [2] is Rattus norvegicus. Nature of the experiment: Antinociceptive activity in iv dosed Sprague-Dawley rat assessed inhibition of thermal stimulus-induced hind paw withdrawal after 32 mins in presence of anandamide. The experiment is classed as functional, organism-based.
Experiment [3] has as its system Rattus norvegicus. Nature of the experiment: Antinociceptive activity in Sprague-Dawley rat assessed inhibition of thermal stimulus-induced hind paw withdrawal at 1 mg/kg, iv after 32 mins. In kind it is functional, organism-based. On the set-up: dose 1 mg/kg.
Experiment [4] relates to Rattus norvegicus. Kind of experiment: Antinociceptive activity in Sprague-Dawley rat assessed inhibition of thermal stimulus-induced hind paw withdrawal at 10 mg/kg, iv after 32 mins. In kind it is functional, organism-based. Further details: dose 10 mg/kg.
Experiment [5] concerns the target T1, Fatty-acid amide hydrolase 1. Kind of experiment: Competitive inhibition of human FAAH expressed in human H4 cells. The experiment is classed as cell-based.
The target in experiment [6] is T2, Fatty-acid amide hydrolase 1 (Homo sapiens) (UniProt O00519).
T2 sequence (whole entry): T1 sequence (O00519 whole entry)
Kind of experiment: Inhibition of human FAAH-mediated anandamide hydrolysis expressed in human H4 cells assessed as reduction in initial reaction rate at 5 nM by fluorescence assay relative to vehicle control. The experiment is classed as cell-based. Further details: scale not given: the % may be the effect or the level left.

The term IC50 denotes the concentration needed to halve the response being measured. For the compound `CCCCCCCCOc1ccc(NC(=O)O/N=C/c2ccccc2)cc1`, the IC50 in experiment [1] is 0.43 nM. The same measure, in the same setting: with `CCCCCCCCCCCCOc1ccc(NC(=O)O/N=C/c2ccc(F)cc2)cc1` the figure was 2.1 nM; with `CCCCCCCCCCOc1ccc(NC(=O)Oc2ccccc2F)cc1`, 9.2 nM; with `CCCCCOc1ccc(NC(=O)O/N=C/c2ccc(F)cc2)cc1`, 1.8 nM.

With `CCOc1ccc(NC(=O)ON=C(C)C)cc1`, the IC50 in experiment [1] stood at 730 nM.

The compound `CCCCCCCCCOc1ccc(NC(=O)O/N=C/c2cccnc2)cc1` registered an IC50 in experiment [1] of 0.65 nM. Same read-out and setting: in the case of `CCCCCCCCCCCCOc1ccc(NC(=O)O/N=C/c2cccnc2)cc1` it was 0.35 nM; in that of `CCCCCCCCCCOc1ccc(NC(=O)O/N=C/c2ccccc2)cc1`, 0.35 nM; in that of `CCCCCCCOc1ccc(NC(=O)O/N=C/c2ccccc2)cc1`, 8.6 nM. In general, Ki refers to a dissociation constant, usually derived from enzyme kinetics or from competition with a known ligand. Compound `CCCCOc1ccc(NC(=O)O/N=C/c2ccc(F)cc2)cc1` registered an IC50 in experiment [1] of 2.2 nM. Further, the results for the Activity entry in experiment [2] and in experiment [6] were “Dose-dependent effect” and 25%, respectively. Moreover, the outcome in experiment [3] and in experiment [4] was inactive. The Ki in experiment [5] came to 30 nM. Consider `CCCCOc1ccc(C(CC)NC(=O)Oc2ccc(F)cc2F)cc1` (stereo not drawn), for which, in experiment [1], half-maximal inhibition (IC50) was put at 21 nM. On the same count and under the same terms, in the case of `CCCCOc1cccc(NC(=O)ON=C(C)C)c1` it was 6300 nM.

`CCCCCCCCCCCCOc1ccc(NC(=O)Oc2ccccc2F)cc1` had an IC50 in experiment [1] of 13 nM. The same measure, in the same setting: in the case of `CCCOc1ccc(NC(=O)O/N=C/c2ccc(F)cc2)cc1` it was 13 nM; in that of `CCCCCCCCCCCOc1ccc(NC(=O)Oc2ccccc2)cc1`, 1 nM; in that of `CCCCCCCCOc1ccc(NC(=O)Oc2ccccc2F)cc1`, 19 nM. Same read-out and setting: in the case of `CCCCCCCOc1ccc(NC(=O)O/N=C/c2cccnc2)cc1` it was 2.3 nM; in that of `CCCCCCOc1ccc(NC(=O)O/N=C/c2ccccc2)cc1`, 8 nM; in that of `CCOc1ccc(NC(=O)O/N=C/c2ccccc2)cc1`, 81 nM. On the same count and under the same terms, in the case of `CCCCCCCCOc1ccc(NC(=O)O/N=C/c2cccnc2)cc1` it was 0.8 nM; in that of `CCCCCOc1ccc(NC(=O)O/N=C/c2ccccc2)cc1`, 3.5 nM; in that of `Cc1nc(-c2ccccc2)c(-c2ccccc2)n1CCCCCCNC(=O)Oc1ccccc1F`, 1.7 nM.

In experiment [1], `CCCCOc1ccc(CNC(=O)ON=C(C)C)cc1` showed an IC50 of 570 nM. Still for that read-out and setting: with `CCCCOc1ccc(NC(=O)ON=C(C)C)cc1OC` the figure was 11000 nM; with `CCCCCCCCCCOc1ccc(NC(=O)ON=C(C)C)cc1`, 2.2 nM.

In turn, `CCCCCCCCCCCCOc1ccc(NC(=O)Oc2ccccc2)cc1` returned an IC50 in experiment [1] of 1.8 nM.

Take `CCCCCCCCOc1ccc(NC(=O)O/N=C/c2ccc(F)cc2)cc1`: half-maximal inhibition in experiment [1] (IC50) was put at 0.27 nM. Same read-out and setting: in the case of `CCCCOc1ccc(C(CC)NC(=O)Oc2ccc(F)cc2)cc1` (stereo not drawn) it was 12 nM; in that of `CCCCCCCCCCCOc1ccc(NC(=O)Oc2ccccc2F)cc1`, 15 nM.

`CCCCCCCCCCOc1ccc(NC(=O)O/N=C/c2cccnc2)cc1`: the IC50 in experiment [1] was determined as 0.35 nM.

Compound `CCCCCCCCCCOc1ccc(NC(=O)Oc2ccccc2)cc1` returned an IC50 in experiment [1] of 1.4 nM.

Regarding `CCCCCCCOc1ccc(NC(=O)Oc2ccccc2)cc1`, it took 8.6 nM to reach half-maximal inhibition in experiment [1] (IC50). Still for that read-out and setting: in the case of `CCCCCCCCCCCOc1ccc(NC(=O)O/N=C/c2cccnc2)cc1` it was 0.15 nM; in that of `CCCCOc1ccc(C(CC)NC(=O)Oc2ccccc2)cc1` (stereo not drawn), 12 nM.

Regarding `CCCCCCOc1ccc(NC(=O)ON=C(C)C)cc1`, the IC50 in experiment [1] worked out at 18 nM. The same measure, in the same setting: with `CCCCOc1ccc(CNC(=O)Oc2cccc(C(F)(F)F)c2)cc1` the figure was 40 nM. The same measure, in the same setting: in the case of `CCCCCOc1ccc(NC(=O)O/N=C/c2cccnc2)cc1` it was 6.1 nM. Same read-out and setting: with `CCCCCCCCCOc1ccc(NC(=O)O/N=C/c2ccc(F)cc2)cc1` the figure was 0.2 nM; with `CCCCCOc1ccc(NC(=O)ON=C(C)C)cc1`, 28 nM. As to `CCc1ccc(-c2ccc(NC(=O)Oc3ccccc3F)cc2)cc1`, the IC50 in experiment [1] stood at 810 nM. As to `CCCCCCCCCOc1ccc(NC(=O)ON=C(C)C)cc1`, the IC50 in experiment [1] was determined as 2.1 nM. The compound `CCCCCCCCCCOc1ccc(NC(=O)O/N=C/c2ccc(F)cc2)cc1` came in with a 50% inhibitory concentration (IC50) in experiment [1] of 0.25 nM. The same measure, in the same setting: with `CCCCCCOc1ccc(NC(=O)Oc2ccccc2F)cc1` the figure was 710 nM; with `CCCCCCOc1ccc(NC(=O)Oc2ccccc2)cc1`, 31 nM. Still for that read-out and setting: with `COc1ccc(NC(=O)O/N=C/c2ccccc2)cc1` the figure was 290 nM. Same read-out and setting: with `CCCCCCCCCCCCOc1ccc(NC(=O)O/N=C/c2ccccc2)cc1` the figure was 2.4 nM; with `CCCCCCCOc1ccc(NC(=O)O/N=C/c2ccc(F)cc2)cc1`, 2.3 nM; with `CCCCOc1ccc(NC(=O)Oc2ccc(F)cc2)cc1`, 120 nM. For `CCCCOc1ccc(NC(=O)Oc2ccccc2F)cc1`, the IC50 in experiment [1] worked out at 340 nM. On the same count and under the same terms, with `CCCCCCCCCCCOc1ccc(NC(=O)ON=C(C)C)cc1` the figure was 4.9 nM; with `CCCOc1ccc(NC(=O)O/N=C/c2cccnc2)cc1`, 29 nM; with `CCCCCCCOc1ccc(NC(=O)Oc2ccccc2F)cc1`, 28 nM. On the same count and under the same terms, in the case of `O=C(Nc1ccc(Oc2ccccc2)cc1)Oc1ccccc1F` it was 1300 nM; in that of `CCCCOc1ccc(C(CC)NC(=O)Oc2ccc(OC)cc2)cc1` (stereo not drawn), 12 nM.

Consider `CCCCCCCOc1ccc(NC(=O)ON=C(C)C)cc1`, for which, in experiment [1], half-maximal inhibition (IC50) was put at 8.4 nM.

In turn, `CCCCOc1ccc(NC(=O)O/N=C/c2cccnc2)cc1` returned an IC50 in experiment [1] of 14 nM. Still for that read-out and setting: with `CCCCOc1ccc(CNC(=O)Oc2ccccc2F)cc1` the figure was 9.2 nM; with `CCCCCCCCOc1ccc(NC(=O)ON=C(C)C)cc1`, 2.4 nM; with `CCCCOc1ccc(C(CC)NC(=O)Oc2ccccc2F)cc1` (stereo not drawn), 7.7 nM. As for `CCCCCCOc1ccc(NC(=O)O/N=C/c2cccnc2)cc1`, the IC50 in experiment [1] turned out to be 8.3 nM.

`CCOc1ccc(NC(=O)O/N=C/c2ccc(F)cc2)cc1` returned an IC50 in experiment [1] of 46 nM. Same read-out and setting: in the case of `CCCCCCCCCCCOc1ccc(NC(=O)O/N=C/c2ccc(F)cc2)cc1` it was 0.4 nM. Still for that read-out and setting: with `CCCCOc1ccc(NC(=O)ON=C(C)C)cc1` the figure was 28 nM.

In experiment [1], `CCCCOc1ccc(C(CC)NC(=O)Oc2cccc(N(C)C)c2)cc1` (stereo not drawn) yielded an IC50 of 54 nM.

As for `CCCCOc1ccc(CNC(=O)Oc2cccnc2)cc1`, half-maximal inhibition in experiment [1] (IC50) required 6.1 nM.

The compound `CCCCCCCCOc1ccc(NC(=O)Oc2ccccc2)cc1` yielded an IC50 in experiment [1] of 5.4 nM. In the case of `CCCCOc1ccc(CNC(=O)Oc2ccc(F)cc2)cc1`, half-maximal inhibition in experiment [1] (IC50) was put at 4.6 nM.

For `CCCCCCCCCOc1ccc(NC(=O)O/N=C/c2ccccc2)cc1`, in experiment [1], the IC50 amounted to 0.25 nM. The same measure, in the same setting: with `CCCCOc1ccc(CNC(=O)Oc2ccc(F)cc2F)cc1` the figure was 8.7 nM.

For `CCCOc1ccc(NC(=O)ON=C(C)C)cc1`, in experiment [1], it took 210 nM to reach half-maximal inhibition (IC50). For the compound `CCCCOc1ccc(NC(=O)O/N=C/c2ccccc2)cc1`, in experiment [1], the IC50 was determined as 8.5 nM. On to `CCCCOc1ccc(C(CC)NC(=O)Oc2cccc(C(F)(F)F)c2)cc1` (stereo not drawn), for which, in experiment [1], 51 nM corresponded to half-maximal inhibition (IC50).

In experiment [1], `CCCCCCOc1ccc(NC(=O)O/N=C/c2ccc(F)cc2)cc1` showed an IC50 of 6.5 nM. The same measure, in the same setting: in the case of `CCOc1ccc(NC(=O)O/N=C/c2cccnc2)cc1` it was 150 nM; in that of `CCCCCCCCCCCCOc1ccc(NC(=O)ON=C(C)C)cc1`, 5 nM; in that of `CCCCOc1ccc(CNC(=O)Oc2cccc(Cl)c2)cc1`, 12 nM. Same read-out and setting: with `CCCOc1ccc(NC(=O)O/N=C/c2ccccc2)cc1` the figure was 9.3 nM; with `CCCCCCCCCCCOc1ccc(NC(=O)O/N=C/c2ccccc2)cc1`, 0.45 nM.
